{"source": "patent US12667569B2", "about": "“Use of sepiapterin and metabolites thereof to treat radiation exposure” (PTC Therapeutics MP, Inc., priority 2019, dated 2026)", "key": {"C57L/J mice [1]": {"tested_on": "C57L/J mice", "assay": "Survival over 180 days post IR (Kaplan Meyer)", "type": "in vivo", "details": "irradiated mice; oral BH4 starting 24 hours after radiation", "method": "(§1) Equal numbers of male and female mice were distributed to each group. While under ketamine/xylazine anesthesia (100 mg/kg and 10 mg/kg, respectively) mice received 5 Gy total body irradiation (TBI), immediately followed by a top-up dose of 6.5 Gy to the thorax, for a total thoracic dose of 11.5 Gy, using a Varian 21 EX LINAC (Palo Alto, CA). Twenty-four hours post-irradiation, mice were treated once daily for 6 days by oral gavage with 1 mg/kg sepiapterin or 5 mg/kg BH4 dissolved in water (FIG. 1).\nTo determine whether the improved cardiopulmonary function impacted overall survival the mice were followed over 180 days post IR."}, "C57L/J mice [2]": {"tested_on": "C57L/J mice", "assay": "Echocardiography: contractile reserve (isoproterenol response), myocardial performance index, IRT after irradiation", "type": "in vivo", "details": "irradiated mice; BH4 5 mg/kg oral once daily 6 days from 24 h post-IR", "method": "Both male and female C57L/J wild-type 6-8-week-old mice were purchased from Jackson Laboratory (Bar Harbor, ME). The mice were housed with a 12:12 h light-dark schedule and access to water and food ad libitum. The experiments were conducted under the guidelines of laboratory animals for biomedical research published by the National Institutes of Health (rev. 2011). The study protocol was approved by the Institutional Animal Care and Use Committee of Virginia Commonwealth University.\nas §1\nAll mice underwent transthoracic echocardiography at baseline (before irradiation (IR)), at 8, 30, 60, 90 and 180 days, under light anesthesia (30 mg/kg pentobarbital sodium). Echocardiography was performed with the Vevo770 imaging system (VisualSonics, Toronto, Ontario, Canada) and a 30-MHz probe. The heart was visualized in B-mode from parasternal short-axis and apical views. The left ventricular (LV) end-diastolic diameter (EDD), LV end-systolic diameter (ESD), LV anterior wall diastolic thickness (AWDT), and LV posterior wall diastolic thickness (PWDT), LV anterior wall systolic thickness (AWST), and LV posterior wall systolic thickness (PWST) were measured at M-mode, according to the American Society of Echocardiography recommendations. LV ejection fraction (EF), and LV mass were calculated from the measurements of wall thickness and chamber diameters. The LVEF was derived using the Teicholz formula (LVEF=[LVEDD3−LVESD3]/LVEDD3), as previously described. The transmitral LV outflow tract Doppler spectra (E, A, ET) was recorded from an apical four-chamber view, and the myocardial performance index (MPI) was calculated as the […] isovolumetric contraction time (ICT) and isovolumetric relaxation time (IRT) divided by the ejection time (ED. The investigators performing and reading the echocardiograms were blinded to the treatment allocation. A beta-adrenergic agonist, isoproterenol (Sigma Aldrich, St. Louis, MO, USA) 20 ng/mouse, was used to assess cardiac contractility in irradiated mice without SP treatment. Cardiac contractility (contractile reserve) was expressed as percentage change in LVEF measured at rest (LVEFr) and 3 min after isoproterenol injection (LVEFi) and calculated as [(LVEFi−LVEFr)/LVEFr]*100. Measurements of the contractile reserve were taken at baseline, 8, 30, 60, 90 and 180 days after IR. Echocardiogram assessment was performed by an operator blinded to treatment allocation."}, "C57L/J mice [3]": {"tested_on": "C57L/J mice", "assay": "Assessment of lung injury by breathing rate (MouseOx) after irradiation", "type": "in vivo", "details": "irradiated mice, 5 mg/kg BH4 for 6 days, vs vehicle", "method": "as §1\nThe breathing rate was measured every other week starting in week 6 using the Mouse Ox system (STARR Life Sciences Corp., Allison Park, PA). The animal was placed under ketamine/xylazine anesthesia and shaved in the area of analysis. 10 min post injection the animal was placed in a supine position with the sensor clipped to the upper thigh. The breathing rate was recorded for 3 min. The breathing rate was calculated using an algorithm in the Mouse Ox software."}, "exosomal miRNAs": {"tested_on": "exosomal miRNAs", "assay": "Serum exosomal miRNA expression after irradiation", "type": "in vivo, mice", "details": "irradiated mice; BH4 treatment (FIG. 6A)", "method": "Blood was collected by cardiac puncture using EDTA vials. Blood samples were centrifuged 3,000×g for 25 minutes, and plasma fraction was aliquoted and saved in a vapor phase of liquid nitrogen. Exosomes were isolated from the plasma of mice at the time points shown in FIGS. 6A-6C using an Exosome isolation kit from 101Bio. Exosome concentrations were quantified by EXOCET Exosome Quantitation Kit (System Biosciences). Equal exosome number from 5 animals were combined for each time point, and total exosomal RNA was extracted by using miRNeasy Micro Kit (QIAGEN). For the miRNAs expression profiling the miRCURY LNA™ Universal RT microRNA PCR assay (QIAGEN) and ExiLENT SYBR® Green Maser Mix (QIAGEN) were used. The initial estimation of exosomal miRNAs expression was performed by using Serum/Plasma LNA™ miRNA PCR Panel (Cat. #YAHS-106Y. QIAGEN) on the QuantStudio 5 RT-PCR machine (Applied Biosystems).\nThe first group included let-7a-5p, miR-1, miR-106b-3p, miR-106b-5p, miR-126-3p, miR-181a-5p, miR-335-3p, and miR-335-5p. […] The second group included let-7g-5p, let-7i-5p, and miR-16-5p. There were no significant differences between males and females both in terms of exosomal miRNA expression altered by IR or the effects of sepiapterin on miRNA expression."}}, "note": "“Also recorded” adds a separate entry of the source.", "data": [{"smiles": "C[C@H](O)[C@H](O)[C@H]1CNc2[nH]c(N)nc(=O)c2N1", "note": "[BH4, Tetrahydrobiopterin]", "values": [{"measurement": "survival", "setting": "C57L/J mice [1]", "result": "increased survival"}, {"measurement": "contractile reserve", "setting": "C57L/J mice [2]", "result": "enhanced contractile reserve"}, {"measurement": "systolic and diastolic function", "setting": "C57L/J mice [2]", "result": "improved systolic and diastolic function"}, {"measurement": "development of lung injury", "setting": "C57L/J mice [3]", "result": "significant delay in the development of lung injury"}, {"measurement": "lung function (breathing rate)", "setting": "C57L/J mice [3]; 5 mg/kg", "result": "significantly reduced impairment of lung function at all points measured; also recorded: decreasing breathing frequency"}, {"measurement": "exosomal expression of miR-15b-3p, miR-106a-5p, miR-133b, miR-136-5p, miR-451a, miR-1, miR-335-3p, let-7d-3p, let-7c-5p", "setting": "exosomal miRNAs", "result": "increases in expression"}]}]}
